“Also recorded” adds a separate entry of the source.
Columns and labels:
[1] = tested on: LC3-II and p62 in U2OS cells; experiment: Accumulation of autophagosome markers LC3-II and p62, Western immuno-blotting; assay type: cell-based, human
Procedure: Cells were cultured for 4 hrs before total cell extracts were subjected to Western immuno-blotting for LC3, p62 and β-actin. Blot was developed with film. […] (C) U2OS cells were cultured for the times indicated in the presence of 1.2 μM compound 1 to produce 80% of the maximum observed in FIG. 10A. Total cell extracts were assayed at the times indicated. […] All blots were stained with Ponceau S […].
Total cell lysates were prepared (in 4× dye). Proteins were fractionated at 200V in a NuPAGE 4-12% bis-tris polyacrylamide gel (NP0323, Novex) using NuPAGE MES running buffer (NP0002, Novex) and then stained with PageBlue (24260, Thermo Scientific) in order to quantify the relative amount of histones in each sample. […] Proteins were wet-transferred onto nitrocellulose membranes (162-0112, Bio-Rad) using NuPAGE transfer buffer (NP-0006-1, Novex) for 1 hour at 30V. Membranes were then stained with dilute Ponceau S solution, blocked in 5% milk for 30 minutes at room temperature, and incubated overnight at 4° C. in primary antibody. Membranes were washed with phosphate buffered saline with tween 20 (PBST) three times for 10 min. each, incubated with secondary antibodies in 5% milk for 1 hour, washed three times with PBST again, covered in ECL (SuperSignal West Pico chemiluminescent substrate, 34080, Thermo Scientific) and exposed to film (HyBlot ES, E3218, Denville Scientific).

[2] = tested on: osteosarcoma U2OS cells; experiment: U2OS cell proliferation; assay type: cell-based, human
Description: (§1) These effects are dependent on the compound selected, its concentration and the length of time cells are exposed to the compound.
(§2) Cells were obtained from the American Type Culture Collection. BORCS5-KO HeLa cells have been described previously. Osteosarcoma U2OS were routinely seeded in 6-well plates (0.5×10^5 cells/well) and cultured in Dulbecco's Modified Eagle's medium supplemented with L-Glutamine, 4.5 g/L Glucose, Sodium Pyruvate, Phenol Red, and either heat-inactivated or normal 10% fetal calf serum at 37° C. in 5% CO2. Approximately 15-19 hours later, the indicated compound was added in 1:1000 dilutions. Results were the same using either heat-inactivated or normal fetal calf serum. Melanoma A375, embryonic kidney 293T and human foreskin fibroblast Hs27 cells were cultured in the same medium, except that cells were seeded into 12-well plates at 10^3 cells/well.

[3] = tested on: osteosarcoma U2OS cells; experiment: Induction of cytoplasmic vacuoles (enlarged lysosomes) in U2OS cells, light microscopy; assay type: cell-based, human
Description: Vehicle is the concentration of DMSO that was introduced by addition of compounds.
as §1, §2
Phase contrast photographs were taken on an Olympus CKX41 microscope. Confocal photographs were taken on a Leica TCS-SP5II. For immunofluorescence microscopy, the cells were fixed in 4% paraformaldehyde (Electron Microscopy Sciences, 15714) in PBS for 12 min, permeabilized with 0.2% Triton X-100 in PBS for 10 min, and blocked in 0.2% BSA (Sigma-Aldrich, A7030) in PBS for 30 min at 37° C. For endogenous LC3 staining, cells were permeabilized in methanol for 20 min at −20° C. after the paraformaldehyde fixation. The cells were sequentially incubated with primary antibodies (LAMP1: Developmental Studies Hybridoma Bank; LC3 and LAMTOR4: Cell Signaling Technology; FLAG epitope: Sigma-Aldrich) and secondary antibodies conjugated to Alexa Fluor dyes (Life Technologies) diluted with 0.2% BSA in PBS for 30 min at 37° C. Coverslips were mounted on glass slides using Fluoromount-G (Electron Microscopy Sciences, 17984-24). Cells were imaged using a Zeiss LSM880 with AiryScan confocal microscope (Carl Zeiss AG, Oberkochen, Germany) or a Leica TCS-SP5II. The final composite images were created and properly analyzed for lysosomal size examination using ImageJ (NIH).

[4] = tested on: melanoma A375 cells; experiment: A375 cell proliferation (crystal violet plate assay); assay type: cell-based, human
[5] = tested on: melanoma A375 tumors; experiment: Expansion of preformed A375 tumors in outbred nude mice; assay type: in vivo
Procedure: Melanoma A375 cells were inoculated subcutaneously into outbred nude mice on day 0 (broad arrow). Intraperitoneal injections (arrows) of vehicle (open circles), 20 mg compound 1 (grey circles), or 40 mg compound 1/kg (solid circle) of mouse weight were administered daily beginning with day 7 when palpable tumors were present. Each group contained three mice. SEMs are indicated. Error bars indicate the SEM for 6 tumors.
The genetic diversity of human populations is greater than the genetic diversity of inbred animals. Therefore, the experiment in FIG. 20 with inbred nude mice was repeated with outbred nude mice.

[6] = tested on: melanoma A375 tumors; experiment: Expansion of preformed A375 tumors in inbred nude mice; assay type: in vivo; settings: 20 or 40 mg/kg intraperitoneally each day for 14 days
Procedure: (A) Melanoma A375 cells were cultured to 80% confluency and then inoculated subcutaneously into both flanks of inbred nude mice. Palpable tumors (˜40-50 mm^3) appeared within 7 days. (B) Either vehicle or 20 or 40 mg of compound 1 per kg of the mouse was injected intraperitoneally each day for a period of 14 days. Compound 1 was dissolved in sunflower seed oil. Tumors were excised on day 21. […] Error bars indicate the SEM for 6 tumors.
To determine whether or not compound 1 could inhibit expansion of a preformed tumor that arose from autophagy-dependent cancer cells, melanoma A375 cells were inoculated into the flanks of immuno-compromised mice and allowed to form a palpable tumor. Mice were then injected intraperitoneally once a day with varying amount of compound 1.

[7] = tested on: melanoma A375 cells; experiment: Tumor formation by pretreated A375 cells in nude mice; assay type: in vivo
Description: Viability was quantified by trypan blue dye exclusion method. The images confirmed the presence of cytoplasmic vacuolization occurred only in the compound 1 treated cells. […] The left flank received cells pretreated with vehicle and the right flank received cells pretreated with compound 1. At 27 days later, mice were photographed, and tumors excised. […] Error bars indicate the SEM for 5 tumors.
To determine whether or not compound 1 could inhibit progression of a tumor that arose from autophagy-dependent cancer cells, melanoma A375 cells were pretreated with either vehicle or compound 1 and then assayed for their ability to produce a tumor. Pretreatment consisted of culturing A375 cells for 8 hours with 10 μM compound 1. The cells were then recovered by trypsinization and their viability confirmed by trypan blue exclusion. […] The cells were then inoculated subcutaneously into the flanks of immuno-compromised mice.

Compound: C1=Nc2ccccc2/C1=C/NNc1nc(Nc2ccccc2)nc(N2CCOCC2)n1 [compound 1]
- Delay of p62 accumulation relative to LC3-II [1]: about 3 hours
- Sensitivity of inhibition of lysosome fission relative to accumulation of autophagosomes [1]: at least 5 fold
- Concentration required for near maximum levels of LC3-II accumulation ([1]; 4 hrs): 0.1 to 0.5 µM
- Accumulation of LC3-II ([1]; U2OS cells): comparable increase in LC3-II
- Time to accumulation of LC3-II and p62 ([1]; U2OS cells): ≤ 4 h
- Efficacy at inhibiting U2OS cell proliferation relative to HCQ or CQ [2]: 21 times
- Effect on U2OS cells ([2]; 0.1 μM): reduced the proliferation rate
- Efficacy at arresting growth and proliferation relative to HCQ and CQ ([2]; cancer cells that depend on autophagy but are not addicted): 20 ×
- Time to detect vacuoles by light microscopy ([3]; U2OS cells): ≤ 20 min
- Variation of the concentration required to induce vacuolization, most potent compared to least potent ([3]; U2OS cells, compound 1 compared to compound 3): 400 fold
- Concentration at which 80% of the cells were vacuolated ([3]; by 4 hours): 0.01 to 0.1 µM
- Concentration to induce LC3-II accumulation, inhibit proliferation or viability relative to concentration to observe vacuolization ([3]; same U2OS cells): about 30 fold
- Inhibition of proliferation of melanoma A375 cells [4]: inhibited A375 cell proliferation
- Efficacy at inhibiting A375 cell proliferation relative to HCQ or CQ ([4]; plate assays): at least 100 times
- Expansion of preformed tumors ([5]; 20 or 40 mg/kg intraperitoneally daily, outbred nude mice): inhibited by compound 1 in a dose dependent manner; also recorded: inhibited growth of tumors
- Ill effects on mice ([5]; mice weighed each day during injections): no visible ill effects
- Ill effects on mice [6]: no exhibited ill effects
- Expansion of preformed tumors ([6]; inbred nude mice): inhibited by compound 1 in a dose dependent manner
- Tumor xenograft formation by pretreated cells ([7]; A375 cells pretreated 8 hours with 10 μM, subcutaneous): decidedly less efficient; also recorded: inhibited their ability to form a tumor
- Ill effects on mice ([7]; mouse weight): no ill effects on mice

Source: patent US11471460B2, “Autophagy modulators for use in treating cancer” (The United States of America,as represented by the …, priority 2017, dated 2022)
